Where “and” joins values, the source holds several entries; their conditions need not be identical. Equal values may be shown once. Toxic doses and inconclusive results are not listed. Rule for the calls: active = survival T/C of 150% or more; inactive = T/C below 125% in these data.
Test system: BDF1 mice, P388 leukemia ip, median survival T/C
Assay: NCI In Vivo Anticancer Drug Screen. Data for tumor model P388 Leukemia (intraperitoneal) in B6D2F1 (BDF1) mice
Details: endpoint: median survival time, higher = longer survival
In short: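 Transplantable tumour in mice; compound vs vehicle dosing; survival scored; ratio of treated to control reported.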

[1] = dose: 100.0 mg/kg/injection, schedule: Q01DX009 (ip), vehicle: Klucel (hydroxypropylcellulose) (HPC)
[2] = dose: 100.0 mg/kg/injection, schedule: Q04DX003 (ip), vehicle: Klucel (hydroxypropylcellulose) (HPC)
[3] = dose: 200.0 mg/kg/injection, schedule: Q04DX003 (ip), vehicle: Klucel (hydroxypropylcellulose) (HPC)
[4] = dose: 400.0 mg/kg/injection, schedule: Q01DX009 (ip), vehicle: Klucel (hydroxypropylcellulose) (HPC)
[5] = dose: 400.0 mg/kg/injection, schedule: Q04DX003 (ip), vehicle: Klucel (hydroxypropylcellulose) (HPC)
[6] = dose: 100.0 mg/kg/injection, schedule: Q04DX003 (ip), vehicle: saline with Tween-80
[7] = dose: 200.0 mg/kg/injection, schedule: Q04DX003 (ip), vehicle: saline with Tween-80
[8] = dose: 400.0 mg/kg/injection, schedule: Q04DX003 (ip), vehicle: saline with Tween-80
[9] = dose: 50.0 mg/kg/injection, schedule: Q01DX005 (ip), vehicle: saline
[10] = dose: 100.0 mg/kg/injection, schedule: Q01DX005 (ip), vehicle: saline
[11] = dose: 100.0 mg/kg/injection, schedule: Q01DX009 (ip), vehicle: saline with Tween-80
[12] = dose: 200.0 mg/kg/injection, schedule: Q01DX009 (ip), vehicle: saline with Tween-80
[13] = dose: 50.0 mg/kg/injection, schedule: Q01DX009 (ip), vehicle: saline with Tween-80
[14] = dose: 50.0 mg/kg/injection, schedule: Q01DX009 (ip), vehicle: saline
[15] = dose: 50.0 mg/kg/injection, schedule: Q04DX003 (ip), vehicle: saline
[16] = dose: 100.0 mg/kg/injection, schedule: Q01DX009 (ip), vehicle: saline
[17] = dose: 100.0 mg/kg/injection, schedule: Q04DX003 (ip), vehicle: saline
[18] = dose: 25.0 mg/kg/injection, schedule: Q01DX009 (ip), vehicle: saline with Tween-80

Measured: T/C

Cc1ccc(NC(=S)N2CCC(CCCC3CCN(C(=S)Nc4ccc(C)c(C)c4)CC3)CC2)cc1C
inactive: [1] 100 % of control | [2] 95 % of control | dose: 200.0 mg/kg/injection, schedule: Q01DX009 (ip), vehicle: Klucel (hydroxypropylcellulose) (HPC) 90 % of control | [3] 95 % of control | [4] 90 % of control | [5] 100 % of control

Cc1ccc(NC(=O)c2ccc([N+](=O)[O-])cc2)c(C)c1
inactive: [6] 100 % of control | [7] 104 % of control | [8] 96 % of control

COc1ccc(CCC(C)=O)cc1
inactive: [1] 100 % of control | [2] 95 % of control | [3] 110 % of control | [4] 109 % of control | [5] 105 % of control

[NH-]C(CCC(N)=O)C(=O)O.[NH-]C(CCCN=C(N)N)C(=O)O.[Zn+2] (configuration not stated)
inactive: [9] 104 % of control | [10] 120 % of control

CC(=O)NN(c1ccccc1)c1ccccc1
inactive: dose: 50.0 mg/kg/injection, schedule: Q04DX003 (ip), vehicle: Klucel (hydroxypropylcellulose) (HPC) 112 % of control | [2] 91 % of control | [3] 108 % of control

CC(=O)c1ccc(-c2ccccc2)cc1
inactive: [11] 100 % of control | [12] 91 % of control | dose: 400.0 mg/kg/injection, schedule: Q01DX009 (ip), vehicle: saline with Tween-80 95 % of control

CN1CC2OC2C2C1N2C#N (configuration not stated)
inactive: dose: 25.0 mg/kg/injection, schedule: Q01DX005 (ip), vehicle: saline 97 % of control | [9] 106 % of control | [10] 111 % of control | dose: 200.0 mg/kg/injection, schedule: Q01DX005 (ip), vehicle: saline 115 % of control

COC(=O)C(Cc1ccccc1)NS(=O)(=O)c1ccc(C)cc1 (configuration not stated)
inactive: dose: 12.5 mg/kg/injection, schedule: Q01DX005 (ip), vehicle: saline with Tween-80 92 % of control | dose: 25.0 mg/kg/injection, schedule: Q01DX005 (ip), vehicle: saline with Tween-80 90 % of control | dose: 50.0 mg/kg/injection, schedule: Q01DX005 (ip), vehicle: saline with Tween-80 87 % of control and 92 % of control | dose: 200.0 mg/kg/injection, schedule: Q01DX005 (ip), vehicle: saline with Tween-80 111 % of control

CC1(C)N=C(N)N=C(N)N1c1ccc(OCCOc2ccc(S(=O)(=O)F)cc2)c(Cl)c1
inactive: [11] 90 % of control | [7] 108 % of control
active: dose: 12.5 mg/kg/injection, schedule: Q04DX003 (ip), vehicle: saline with Tween-80 158 % of control | dose: 13.0 mg/kg/injection, schedule: Q04DX003 (ip), vehicle: saline with Tween-80 160 % of control | dose: 20.0 mg/kg/injection, schedule: Q04DX003 (ip), vehicle: saline with Tween-80 185 % of control | dose: 25.0 mg/kg/injection, schedule: Q04DX003 (ip), vehicle: saline with Tween-80 170 % of control | dose: 30.0 mg/kg/injection, schedule: Q04DX003 (ip), vehicle: saline with Tween-80 185 % of control | dose: 33.0 mg/kg/injection, schedule: Q01DX009 (ip), vehicle: Klucel (hydroxypropylcellulose) (HPC) 227 % of control | dose: 50.0 mg/kg/injection, schedule: Q01DX009 (ip), vehicle: Klucel (hydroxypropylcellulose) (HPC) 154 % of control | [13] 268 % of control | dose: 50.0 mg/kg/injection, schedule: Q04DX003 (ip), vehicle: saline with Tween-80 154 % of control and 162 % of control | dose: 66.0 mg/kg/injection, schedule: Q04DX003 (ip), vehicle: saline with Tween-80 180 % of control | dose: 75.0 mg/kg/injection, schedule: Q01DX009 (ip), vehicle: Klucel (hydroxypropylcellulose) (HPC) 163 % of control | dose: 75.0 mg/kg/injection, schedule: Q04DX003 (ip), vehicle: saline with Tween-80 170 % of control | [6] 180 % of control | dose: 150.0 mg/kg/injection, schedule: Q04DX003 (ip), vehicle: saline with Tween-80 232 % of control

Cc1c(CCl)c(C)c(CCl)c(C)c1CCl
inactive: [2] 108 % of control

CC1CCCCN1CC(Cl)Cl (configuration not stated)
active: [16] 150 % of control
inactive: [14] 122 % of control | [15] 109 % of control | [17] 104 % of control | dose: 200.0 mg/kg/injection, schedule: Q04DX003 (ip), vehicle: saline 122 % of control

Cc1ccccc1C(=O)NCC(=O)O
inactive: [6] 104 % of control | [7] 100 % of control | [8] 100 % of control

Cc1ccc(S(=O)(=O)O)cc1
inactive: dose: 25.0 mg/kg/injection, schedule: Q01DX009 (ip), vehicle: saline 91 % of control | [14] 91 % of control | [15] 100 % of control | [16] 108 % of control | [17] 95 % of control

COc1ccc(Cl)cc1NC(=O)c1ccccc1C(=O)O
inactive: [2] 91 % of control | [3] 87 % of control | [5] 87 % of control

CSc1ccc(O)c(S)c1
inactive: [13] 118 % of control | [11] 122 % of control | [12] 124 % of control

Cc1nc2nc(C(F)(F)F)[nH]c2nc1C
inactive: [18] 99 % of control | [13] 105 % of control | [11] 102 % of control | [12] 94 % of control

O=S(=O)(c1ccccc1)c1nn2nnnc2c2ccccc12
inactive: [18] 86 % of control | [13] 94 % of control | [11] 95 % of control

Cn1c2c(c3ccccc3c1=O)C(=O)c1ccccc1-2
inactive: [13] 101 % of control | [12] 90 % of control

CC(C)NCc1ccccc1Sc1ccccc1
inactive: dose: 100.0 mg/kg/injection, schedule: Q01DX001 (ip), vehicle: saline with Tween-80 101 % of control

CCc1c(Cl)c(C)cc(O)c1Cl
inactive: dose: 18.0 mg/kg/injection, schedule: Q01DX009 (ip), vehicle: gum acacia 112 % of control | dose: 25.0 mg/kg/injection, schedule: Q01DX009 (ip), vehicle: gum acacia 112 % of control | dose: 25.0 mg/kg/injection, schedule: Q04DX003 (ip), vehicle: gum acacia 88 % of control | dose: 50.0 mg/kg/injection, schedule: Q01DX009 (ip), vehicle: gum acacia 100 % of control | dose: 50.0 mg/kg/injection, schedule: Q04DX003 (ip), vehicle: gum acacia 92 % of control | dose: 100.0 mg/kg/injection, schedule: Q04DX003 (ip), vehicle: gum acacia 96 % of control

Source: PubChem BioAssay AID328 (DTP/NCI, 2004)
